One molecule from US12280046B2, “Melanocortin subtype-2 receptor (MC2R) antagonist for the treatment of disease” (Crinetics Pharmaceuticals, Inc., priority 2021, dated 2025) can be followed below.

In one series the target is T1, human MC2R (Homo sapiens, UniProt Q01718).
T1 construct: host or cells: CellSensor CRE-bla CHO-K1
Description: Inhibition of ACTH binding: radioactive competition binding assay, hMC2R membranes. The procedure: Crude membrane fractions are prepared from CellSensor CRE-bla CHO-K1 cells stably expressing functional hMC2 receptor (ThermoFisher #K1483). The cells are cultured to 85-100% confluency in growth media [GlutaMax DMEM (Gibco #10569-010) supplemented with 10% dialyzed fetal bovine serum (Gemini Bio-Products #100-108), 0.1 mM non-essential amino acids (Gibco #11140-050), 100 U/mL penicillin; 100 μg/mL streptomycin; 2 mM L-glutamine (Gemini Bio-Products #400-110), 5 μg/mL blasticidin (GoldBio #B-800-100), 100 μg/mL zeocin (Invitogen #R25005) and 600 μg/mL hygromycin B (GoldBio #31282-04-9)]. Cells were collected and washed in Dulbecco's phosphate buffered saline (Corning #21-031-CV). […]
The inhibition of binding to the human MC2R receptor was measured in a radioactive competition binding assay using the radiolabeled [^125I]-TYR^23]-ACTH (1-39) ligand (PerkinElmer #NEX083, custom synthesis) as the probe ligand for the receptor. […] The radioactive signal was detected using a MicroBetaTriLux 1450 LSC (PerkinElmer). […]
The selectivity over other human MCR subtypes was evaluated using commercially available MC1R, MC3R, MC4R, and MCSR membrane binding assays. […]

A further series addresses T2, MC1R (Homo sapiens, UniProt Q01726).
T2 construct: purchased
The series is described as follows: Commercially available MC1R membrane binding assay. As to conditions: greater than highest concentration tested. The procedure:
(§1) The selectivity over other human MCR subtypes was evaluated using commercially available MC1R, MC3R, MC4R, and MCSR membrane binding assays. The half maximal inhibitory concentration in the binding assays (IC50) were determined to be greater than the highest concentration tested, or >10,000 nM, >1000 nM, >10,000 nM and >1000 nM for MC1R, MC3R, MC4R and MCSR, respectively. Compound 1 is >2900-fold selective for MC2R versus the other human MCRs.

The target of a further series is T3, MC4R (Homo sapiens, UniProt P32245).
T3 construct: purchased
Description: Commercially available MC4R membrane binding assay. As to conditions: greater than highest concentration tested. As to the method: as §1

Another series deals with T4, MCSR (Homo sapiens, UniProt P33032).
T4 construct: purchased
Description: Commercially available MCSR membrane binding assay. As to conditions: greater than highest concentration tested. The procedure: as §1

Another series concerns sodium channel (site 2). The series is described as follows: SafetyScreen panel: sodium channel site 2. In kind it is binding. To be noted: 10 μM. The procedure: Compound 1 was tested at Eurofins Panlabs Discovery Services Taiwan, Ltd. for evaluation in their SafetyScreen™ panel of assays. This included selectivity assays at 87 targets including G-protein coupled receptors, nuclear receptors, other cell surface receptors, ion channels, enzymes, and transporters.

The target of the next series is 5-HT1B receptor (Homo sapiens, UniProt P28222). The series is described as follows: 5-HT1B functional dose response, agonist and antagonist modes. Format: biochemical. The source says: The selectivity of Compound 1 for hMC2R over 5-HT1B is >2200-fold.
Series [1] concerns corticosterone and adrenal gland hypertrophy. Description: Continuous pump-administration of ACTH(1-24) in male rats, 7 days of daily oral dosing. Format: in vivo, rat. The procedure: Exogenous ACTH(1-24) (100 μg/kg/day) was administered to male rats via subcutaneously implanted osmotic pumps. The ability of repeated daily oral administration of Compound 1 to suppress corticosterone over 7 days was evaluated.

Series [2] in a line: Phase 1 SAD study, pharmacokinetics in healthy volunteers. In kind it is in vivo, human. The source says: This Phase 1, first-in-human, double-blind, randomized, placebo-controlled study will evaluate the safety of Compound 1 in healthy volunteers as well as the relationship between exposure and pharmacodynamic (PD) parameters, including ACTH-stimulated and endogenous cortisol secretion measured in blood, saliva, and urine. Results will be used to inform endpoints and other parameters in future later studies in patients with Cushing's disease (CD) or other diseases of excess adrenocorticotropic hormone (ACTH), including Congenital Adrenal Hyperplasia (CAH) and Ectopic ACTH Syndrome (EAS).
SAD/Part 1: ascending single dose, randomized, placebo-controlled, double-blind; 5 planned and up to 8 total cohorts, n=64. In each cohort, 6 subjects will receive Compound 1, 2 subjects will receive the placebo. Doses will escalate from 10 mg in cohort 1 to no more than 250 mg.
Data shown are mean±SEM. All doses n=6. Cohort 4 (n=6, 80 mg) was evaluated in the high dose ACTH-stimulation test, while cohort 5 (n=6, 80 mg) was evaluated in the low dose ACTH-stimulation test.

SMILES strings stand for the structures. pIC50, pKi: −log10 of the molar value. Where only a bound is given, the exact number is not on record here.

5-HT1B receptor, sequence (P28222 whole entry): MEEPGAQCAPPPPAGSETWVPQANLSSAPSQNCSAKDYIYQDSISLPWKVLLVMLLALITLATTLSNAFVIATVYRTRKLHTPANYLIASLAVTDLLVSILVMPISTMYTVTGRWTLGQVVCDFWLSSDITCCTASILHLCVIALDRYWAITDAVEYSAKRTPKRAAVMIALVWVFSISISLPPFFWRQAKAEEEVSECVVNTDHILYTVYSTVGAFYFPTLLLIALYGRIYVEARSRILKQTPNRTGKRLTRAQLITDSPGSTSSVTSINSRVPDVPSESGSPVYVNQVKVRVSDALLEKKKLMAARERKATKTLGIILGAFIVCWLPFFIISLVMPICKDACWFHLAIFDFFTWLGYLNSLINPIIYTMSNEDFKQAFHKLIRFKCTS
T1 sequence (Q01718 whole entry): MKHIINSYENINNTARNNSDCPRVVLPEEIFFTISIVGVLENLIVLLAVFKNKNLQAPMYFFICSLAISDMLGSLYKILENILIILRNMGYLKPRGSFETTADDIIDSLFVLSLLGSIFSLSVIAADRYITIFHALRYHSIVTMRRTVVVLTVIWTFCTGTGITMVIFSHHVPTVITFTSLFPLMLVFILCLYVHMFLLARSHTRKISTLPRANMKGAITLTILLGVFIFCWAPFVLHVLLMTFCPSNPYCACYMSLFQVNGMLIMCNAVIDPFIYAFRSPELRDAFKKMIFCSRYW
T1 sequence (Q8TCY5 whole entry partner): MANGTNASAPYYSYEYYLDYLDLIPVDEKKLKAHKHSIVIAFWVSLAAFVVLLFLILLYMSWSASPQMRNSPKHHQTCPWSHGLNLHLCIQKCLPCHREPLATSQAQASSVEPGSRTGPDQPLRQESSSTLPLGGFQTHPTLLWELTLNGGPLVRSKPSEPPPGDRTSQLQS
T3 sequence (P32245 whole entry): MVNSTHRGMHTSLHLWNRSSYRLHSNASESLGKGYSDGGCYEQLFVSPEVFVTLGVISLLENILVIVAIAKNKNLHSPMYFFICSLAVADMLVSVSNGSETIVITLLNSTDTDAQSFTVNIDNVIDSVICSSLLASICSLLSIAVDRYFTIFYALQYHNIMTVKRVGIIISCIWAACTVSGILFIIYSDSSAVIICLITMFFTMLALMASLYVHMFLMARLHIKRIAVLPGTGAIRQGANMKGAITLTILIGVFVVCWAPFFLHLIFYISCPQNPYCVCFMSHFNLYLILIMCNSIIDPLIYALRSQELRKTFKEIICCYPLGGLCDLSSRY
T4 sequence (P33032 whole entry): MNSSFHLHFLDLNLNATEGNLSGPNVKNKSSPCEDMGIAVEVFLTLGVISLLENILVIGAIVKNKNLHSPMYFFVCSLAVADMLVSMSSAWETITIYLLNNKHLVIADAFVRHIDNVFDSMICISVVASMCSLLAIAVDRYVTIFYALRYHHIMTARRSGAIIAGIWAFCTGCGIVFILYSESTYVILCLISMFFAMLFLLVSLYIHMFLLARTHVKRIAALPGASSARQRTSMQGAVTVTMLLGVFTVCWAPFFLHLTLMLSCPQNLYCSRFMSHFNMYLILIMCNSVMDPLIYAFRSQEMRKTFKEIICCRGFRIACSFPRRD
T2 sequence (Q01726 whole entry): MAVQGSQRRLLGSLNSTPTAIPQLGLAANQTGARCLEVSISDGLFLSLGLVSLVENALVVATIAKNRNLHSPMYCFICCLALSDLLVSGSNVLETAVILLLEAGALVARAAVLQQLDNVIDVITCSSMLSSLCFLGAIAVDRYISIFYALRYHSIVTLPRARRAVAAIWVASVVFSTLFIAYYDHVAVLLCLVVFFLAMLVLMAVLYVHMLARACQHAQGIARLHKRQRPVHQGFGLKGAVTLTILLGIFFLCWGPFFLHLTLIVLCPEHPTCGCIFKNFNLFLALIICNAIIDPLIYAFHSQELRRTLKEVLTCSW

On to `CCOc1ccccc1-c1ccc(N2CCN(C(=O)C3(C(F)(F)F)CCC3)C[C@H]2CC)c(C(=O)N[C@@H]2CN3CCC2CC3)n1` [Compound 1, 6-(2-ethoxyphenyl)-3-((R)-2-ethyl-4-(1-(trifluoromethyl)cyclobutane-1-carbonyl)piperazin-1-yl)-N—((S)-quinuclidin-3-yl)picolinamide], for which the negative-log Ki (pKi) at human MC2R (hMC2R membranes, [125I]-Tyr23-ACTH(1-39) probe, read-out: equilibrium inhibitory constant (Ki) in a binding assay) was greater than 8.00. Moreover, at human MC2R (over MC1R, MC3R, MC4R, MCSR), the “selectivity for MC2R versus the other human MCRs” value was greater than 2900 fold. Besides, the negative logarithm of the IC50 (pIC50) at MC1R was less than 5.00; on MC4R it was less than 5.00; on MCSR it was less than 6.00; at 5-HT1B receptor (antagonist mode, read-out: antagonistic activity IC50) it was roughly 6.12. Besides, the inhibition/activity in the series on sodium channel (site 2) is on record as greater than 70%. In addition, the “selectivity for hMC2R over 5-HT1B” value at 5-HT1B receptor is given as greater than 2200 fold. The agonistic activity entry at 5-HT1B receptor (agonist mode, no signal up to 3000 nM) is reported as “no agonistic activity”. In addition, the “adrenal gland hypertrophy (adrenal gland weight and adrenal cortical area)” value in series [1] (10 and 30 mg/kg/day vs vehicle) is recorded as “ameliorated adrenal gland hypertrophy”. Further, the corticosterone entry in series [1] (≥10 mg/kg/day, 1 hour post-dose on Day 1 and Day 7) is listed as “dose-dependently suppressed”. In series [2] (human, in vivo, single oral dose, at efficacious doses), the Tmax is roughly 1 h. Moreover, the half-life in series [2] (human, in vivo, single oral dose, healthy volunteers) is roughly 24 h. Also, in series [2] (single ascending oral doses), the “oral bioavailability / exposure” value is on record as “oral bioavailability with dose-proportional exposure”.

The pKi is −log10 of the Ki, conventionally taken in molar units. What is called pIC50 is the IC50 on a negative log10 scale, so that one unit is a factor of ten. What is called Tmax is the time from dosing to the highest level. As a reminder, the half-life is the time in which the quantity being followed falls by half.
